Results as given in patent US6960594B2, “Thiophene and furan 2,5-dicarboxamides useful in the treatment of cancer” (Shire BioChem Inc., priority 1998, dated 2005).
“And” between values parts separate entries of the source, which are not always exact repeats. Equal values may be shown once.

What was measured:
GP IIb-IIIa (αIIbβ3) = target: T1, GP IIb-IIIa (αIIbβ3) (Homo sapiens, UniProt P05106+P08514); assay: Fibrinogen binding to immobilized GP IIb-IIIa (αIIbβ3)
T1 construct: purchased Calbiochem
Experimental: (§1) The wells of plastic microtiter plates were coated overnight at 4° C. with purified active αIIbβ3 (Calbiochem) or placental αvβ3 at 0.5 ug/mL (100 uL/well) in a buffer containing 150 mM NaCl, 20 mM Tris, pH 7.4, 1 mM MgCl2, 0.2 mM MnCl2, and including 1 mM CaCl2 for αIIbβ3. Blocking of nonspecific sites was achieved by incubating the wells with 35 mg/mL bovine serum albumin (BSA) for at least 2 hours at 37° C. Biotinylated-fibrinogen (10 nM) was added in 0.2 mL binding buffer (100 mM NaCl, 50 mM Tris, pH 7.4, 1 mM MgCl2, 0.2 mM MnCl2 and 1 mg/mL BSA including 1 mM CaCl2 for αIIbβ3) to the wells in triplicate in the absence or presence of increasing concentrations of compounds of interest (0.001-100 uM) and further incubated for 2 hours at 37° C. Nonbound fibrinogen was removed by five washes with binding buffer. Avidin conjugated to alkaline phosphatase (Sigma), diluted in binding buffer, was added and incubated for two hours at 37° C. The plates were washed five times with binding buffer, and after addition of the substrate PNPP (Pierce), the enzyme activity was measured by the absorbance at 405 nm.

placental αvβ3 = target: T2, placental αvβ3 (Homo sapiens, UniProt P05106+P06756); assay: Fibrinogen binding to immobilized αvβ3
T2 construct: placental αvβ3 at 0.5 ug/mL; from tissue; host or cells: placenta
Experimental: as §1

αvβ3 = target: T3, αvβ3 (Homo sapiens, UniProt P05106+P06756); assay: Cell adhesion assay, K562-tr on osteopontin; format: cell-based
T3 construct: expressed in transfected cells; host or cells: K562
Experimental: The wells of 96-well plates (Immunolon) were coated, by incubation overnight at 4° C., with 5 ug/mL vitronectin, 2 ug/mL osteopontin, or fibronectin or 10 mg/mL BSA in PBS. The protein solution was flicked out and the wells were blocked with 10 mg/mL BSA (0.1 mL) for 1-2 hours at 37° C. […] Cells were lifted with trypsin-EDTA and washed two times with Hank's balanced salt solution minus cations (Sigma) supplemented with 1 mM MgCl2 Cells (75,000 cells/well) were added to coated plates in triplicate and allowed to attach at 37° C. for 1 hour in the presence or absence of specific antibodies (5 ug/mL) or 10-fold dilutions of compounds of interest starting at 10 uM. Nonadherent cells were removed by gentle washing twice with PBS. The adherent cells were solubilized with 1% triton x-100 and detected using a fluorescence plate reader (DYNEX Technologies). The number of attached cells was calculated based upon standard curves for each cell line used in the experiment.

[1] = tested on: Human non small-cell lung cancer cell line H460; assay: Inhibition of metastasis in angiomouse/metamouse human lung cancer model of H460; format: in vivo, athymic BALB/c nude mice
Experimental: Male and female athymic BALB/c nude mice between 4 and 5 weeks of age were used. The animals were bred and maintained in an HEPA-filtered environment with cages, food and bedding sterilized by autoclaving. The breeding pairs were obtained from the Charles River Laboratories (Wilmington, Mass.). The animal diets were obtained from Harlan Teklab (Madison, Wis.). Ampicillin (Sigma, St Louis, Mo.) 5.0% (v/v) was added to the autoclaved drinking water.
Compound VII was tested and AGM-1470 (chloroacetyl-(3R,4S,5S,6R)-5-methoxy-4-[(2R,3R)-2-methyl-3-(3-methyl-2-butenyl)oxiranyl]-1-oxaspiro[2.5]oct-6-yl ester carbamic acid) was used as a positive control. [drawing 51] The compounds were dissolved using PEG400 with heating and sonicatin. The solutions were then diluted with saline to obtain the desired concentrations (30%/70%) and stored at −20° C.
Human non small-cell lung cancer cell line H460 with expression of green fluorescent protein was obtained from the National Cancer Institute. The cells were transfected with vectors carrying the green fluorescent protein (GFP) gene. The cell line was propagated by subcutaneous implantation in nude mice.
Test animals were transplanted by surgical orthotopic implantation (SOI) using fragments harvested from subcutaneaous tumor stock animals. The animals were anesthetized with isoflurane and the surgical area was sterilized using iodine solution and alcohol. A left thoracotomy was made along the 4th intercostal space using a pair of scissors. Two pieces of H460 tumor tissue of one cubic millimiter each were sutured to the left lung using an 8-0 nylon surgical suture. The thorax was closed using a sterile 6-0 silk suture. A sterile 3-cc syringe with a 25-gauge needle was used to remove the air and inflate the lung. All surgical and animal manipulations and procedures were conducted under HEPA-filtered laminar flow hoods.
Extra numbers of mice were transplanted to compensate for postsurgical losses. The orthotopically transplanted animals used were selected to establish groups of similar mean body weight. Groups for each of the cohort conditions wre randomly chosen. The cohort was grouped as follows. A total of 10 mice were used for each dosage regimen. Administration of test compounds and vehicle by subcutaneous injection was begun three days after the orthotopic implantation.
Two animals for each treatment group were sacrificed at day-14 after orthotopic implantation of H460. The remaining animals for each group were sacrificed at day-28 after implantation. The sacrificed animals were evaluated for primary and secondary tumors. Gross examination for distant metastasis was conducted at necropsy. Tissue samples of the primary tumor and those from relevant organs such as the lung, the liver and the lymph nodes wre processed through standards procedures of hematoxylin and eosin staining for subsequent microscopic examination.
The mediastinal lymph nodes, the liver and the lung in each animal were collected. The sampled tissues were sectioned and stained, then microscopically examined. The fisher-exact test was performed to compare distant metastasis to these organs in the treated and the controls. […]

HT29 = assay: Cell proliferation and cytotoxicity MTT assay, HT29; format: cell-based; settings: Homo sapiens, HT-29, 72 hours culture
Experimental: (§2) The wells of microtiter plates were seeded with 2000 cells/well T24, 2500 cells/well HT29 or 5000 cells/well HMVEC (Cell Systems) in 100 uL, followed by an overnight culture for cell adhesion. The next day, the media is supplemented with 100 uL of 10-fold dilution of compound of interest starting at 10 uM. Following culture for 72 hours, 3-(4,5-dimethyl-2-thiazolyl)-2,5-diphenyltetrazolium bromide (MTT; Sigma) at 2 mg/mL was added to each well (50 uL/well) and further incubated for 4 hours at 37° C. The medium was flicked out and 200 uL of a 1:1 solution of ethanol:acetone followed by 25 uL of glycine buffer (0.1 M glycine, 0.1M NaCl, pH 10.5) is added and the color measured by the absorbance at 570 nm.

HMVEC = assay: Cell proliferation and cytotoxicity MTT assay, HMVEC; format: cell-based; settings: HMVEC, 72 hours culture
Experimental: as §2

[2] = Group C, 5 mg/kg SC 2 times/day

T1 sequence (P08514 32-887 limits assumed): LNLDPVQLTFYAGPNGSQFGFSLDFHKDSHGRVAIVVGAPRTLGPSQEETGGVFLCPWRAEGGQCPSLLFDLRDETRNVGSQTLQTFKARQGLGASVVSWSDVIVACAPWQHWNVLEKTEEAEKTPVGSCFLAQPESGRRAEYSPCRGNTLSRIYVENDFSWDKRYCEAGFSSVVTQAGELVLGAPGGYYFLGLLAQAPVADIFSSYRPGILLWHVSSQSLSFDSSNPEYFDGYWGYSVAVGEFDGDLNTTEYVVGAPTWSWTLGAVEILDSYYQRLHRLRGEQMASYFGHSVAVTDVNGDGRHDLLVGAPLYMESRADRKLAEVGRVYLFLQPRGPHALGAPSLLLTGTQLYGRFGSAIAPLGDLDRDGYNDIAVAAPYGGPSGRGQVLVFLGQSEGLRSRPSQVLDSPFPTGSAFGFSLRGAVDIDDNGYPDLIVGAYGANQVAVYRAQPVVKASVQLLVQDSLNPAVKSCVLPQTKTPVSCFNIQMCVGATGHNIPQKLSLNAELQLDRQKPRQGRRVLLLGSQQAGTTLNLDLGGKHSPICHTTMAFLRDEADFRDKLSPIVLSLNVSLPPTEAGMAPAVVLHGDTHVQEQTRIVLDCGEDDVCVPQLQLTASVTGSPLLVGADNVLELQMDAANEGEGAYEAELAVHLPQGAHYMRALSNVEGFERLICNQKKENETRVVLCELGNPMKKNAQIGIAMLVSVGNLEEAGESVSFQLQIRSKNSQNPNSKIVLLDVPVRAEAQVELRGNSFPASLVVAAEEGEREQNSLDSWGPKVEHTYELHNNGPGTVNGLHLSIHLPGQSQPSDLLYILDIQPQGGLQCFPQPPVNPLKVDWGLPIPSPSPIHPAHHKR
T1 sequence (P08514 891-1039 partner limits assumed): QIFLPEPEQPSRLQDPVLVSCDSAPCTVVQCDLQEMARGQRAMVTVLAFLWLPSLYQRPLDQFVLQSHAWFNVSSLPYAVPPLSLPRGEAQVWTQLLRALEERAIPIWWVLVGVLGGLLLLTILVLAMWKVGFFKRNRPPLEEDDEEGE
T1 sequence (P05106 27-788): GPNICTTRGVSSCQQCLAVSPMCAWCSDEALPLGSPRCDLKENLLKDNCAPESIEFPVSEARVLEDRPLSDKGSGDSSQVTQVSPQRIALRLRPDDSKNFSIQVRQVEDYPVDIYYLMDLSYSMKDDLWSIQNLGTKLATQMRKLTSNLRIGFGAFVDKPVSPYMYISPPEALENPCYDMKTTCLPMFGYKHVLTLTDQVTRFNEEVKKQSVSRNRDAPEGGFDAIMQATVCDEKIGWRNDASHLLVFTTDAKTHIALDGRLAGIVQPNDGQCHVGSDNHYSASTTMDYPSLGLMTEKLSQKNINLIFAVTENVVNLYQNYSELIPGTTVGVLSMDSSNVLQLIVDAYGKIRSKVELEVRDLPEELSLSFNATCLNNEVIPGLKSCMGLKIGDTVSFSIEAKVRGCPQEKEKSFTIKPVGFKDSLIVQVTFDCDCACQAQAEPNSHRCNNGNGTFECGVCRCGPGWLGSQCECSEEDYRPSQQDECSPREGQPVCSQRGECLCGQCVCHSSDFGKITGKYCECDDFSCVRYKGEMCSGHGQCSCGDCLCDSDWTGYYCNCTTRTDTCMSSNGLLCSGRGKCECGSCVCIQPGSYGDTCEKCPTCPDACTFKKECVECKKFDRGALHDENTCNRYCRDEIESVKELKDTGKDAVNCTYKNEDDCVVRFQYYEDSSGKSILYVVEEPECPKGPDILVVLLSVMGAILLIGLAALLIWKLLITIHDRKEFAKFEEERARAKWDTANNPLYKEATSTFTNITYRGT
T3 sequence (P06756 31-889 limits assumed): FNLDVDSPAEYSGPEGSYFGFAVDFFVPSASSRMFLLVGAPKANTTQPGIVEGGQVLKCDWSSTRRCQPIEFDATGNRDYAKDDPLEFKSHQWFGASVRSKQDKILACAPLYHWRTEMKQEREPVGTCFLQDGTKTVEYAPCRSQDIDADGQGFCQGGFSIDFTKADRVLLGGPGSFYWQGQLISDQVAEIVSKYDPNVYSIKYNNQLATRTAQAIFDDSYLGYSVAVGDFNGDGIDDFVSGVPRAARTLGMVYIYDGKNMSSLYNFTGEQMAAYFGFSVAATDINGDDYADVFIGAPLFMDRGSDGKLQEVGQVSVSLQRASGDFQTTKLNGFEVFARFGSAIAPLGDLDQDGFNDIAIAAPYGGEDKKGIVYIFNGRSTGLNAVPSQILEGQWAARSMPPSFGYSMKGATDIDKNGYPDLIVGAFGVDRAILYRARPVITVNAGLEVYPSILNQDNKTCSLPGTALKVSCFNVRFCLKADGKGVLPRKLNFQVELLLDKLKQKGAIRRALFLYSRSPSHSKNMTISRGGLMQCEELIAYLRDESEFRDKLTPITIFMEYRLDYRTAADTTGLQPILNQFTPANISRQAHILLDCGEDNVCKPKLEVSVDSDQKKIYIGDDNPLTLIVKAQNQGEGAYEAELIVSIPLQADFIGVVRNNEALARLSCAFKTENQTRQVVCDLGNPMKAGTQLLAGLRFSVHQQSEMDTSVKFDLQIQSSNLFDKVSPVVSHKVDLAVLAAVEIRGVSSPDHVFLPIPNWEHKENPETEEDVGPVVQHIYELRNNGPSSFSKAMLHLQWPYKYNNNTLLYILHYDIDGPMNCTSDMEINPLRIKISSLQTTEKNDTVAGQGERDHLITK
T3 sequence (P06756 891-1048 partner limits assumed): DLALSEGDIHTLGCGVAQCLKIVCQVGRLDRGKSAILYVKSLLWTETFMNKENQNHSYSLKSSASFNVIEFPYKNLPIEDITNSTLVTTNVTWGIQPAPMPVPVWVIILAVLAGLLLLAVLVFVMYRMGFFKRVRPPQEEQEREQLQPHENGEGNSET
T3 sequence (P05106 27-788): as the sequence (P05106 27-788) above
T2 sequence (P06756 31-889 limits assumed): as the sequence (P06756 31-889 limits assumed) above
T2 sequence (P06756 891-1048 partner limits assumed): as the sequence (P06756 891-1048 partner limits assumed) above
T2 sequence (P05106 27-788): as the sequence (P05106 27-788) above

## NCCCNC(=O)c1ccc(C(=O)NC(CC(=O)O)c2ccccc2)s1.O=C(O)C(F)(F)F (stereo not drawn) [Compound VII, 3-{[5-(3-Amino-propylcarbamoyl)-thiophene-2-carbonyl]-amino}-3-phenyl-propionic acid trifluoroacetic acid salt]
GP IIb-IIIa (αIIbβ3)
  IC50: 13.7 µM
Placental αvβ3
  IC50: 6.6 µM
αvβ3
  IC50: > 10 µM
[1]; [2]
  Incidence of lung metastasis: 1/10
  Incidence of lymph node metastasis: 2/10
[1]; Group D, 50 mg/kg SC 2 times/day
  Incidence of lymph node metastasis: 3/10
[1]; Group D, 50 mg/kg SC 2 times/day, trifluoroacetic acid salt, 50 mg/kg
  Incidence of lung metastasis: no lung metastasis and 0/10
HT29
  IC50: > 10 µM
HMVEC
  IC50: > 10 µM
